Source: PMC5859730, “Dual targeting of the cancer antioxidant network with 1,4-naphthoquinone fused Gold(I) N-heterocyclic carbene complexes” (Chemical Science, 2017)
Like-named read-outs stand apart in the source and are kept apart here.

How the values were obtained:
PC-3 prostate = test: Cell proliferation (MTT assay) in PC-3 prostate cells; assay type: cell-based, human; settings: p53 null; Table 3
Description: Further anti-proliferation studies were carried out with complex 1 and its naphthoquinone component 4[H][Cl] using the following cell lines: A2780 ovarian (a wt-p53 cell line sensitive to platinum treatment), 2780CP ovarian (isogenic to A2780 but expressing multi-drug resistance (MDR)), and PC-3 prostate (p53 null) (Table 3).
(§1) Biological preparations and assays
(§2) Experimental compound preparation. Stock solutions of complexes 1–3, 4[H][Cl], auranofin (Tocris Bioscience 4600), and doxorubicin (Tocris Bioscience 2252) were dissolved in DMSO (2.5–10 mM, depending on the compound and its solubility), aliquoted, and stored at -80 °C prior to use.
(§3) Biological Materials and Cell Lines. Cell lines were obtained from the ATCC (A549 and PC-3) and Prof.
Zahid Siddik at M.D. Anderson Cancer Center (A2780 and A2780CP). Cell culture plastic ware (i.e. T-75 flasks, treated 6-well plates, treated 96-well plates, and cell scrapers) were obtained from Fisher Scientific. […]
were made. […] The medium was then removed, the resulting formazan was dissolved in […] DMSO and the respective absorbances were measured at 560–650 nm using a microplate reader (Molecular Devices, Sunnyvale, CA). Absorbance values were corrected for background and then normalized to wells containing untreated cells to allow for plate-to-plate comparisons. […]

A549 cells [1] = test: Detection of intracellular ROS by flow cytometry (CM-H2DCFDA); assay type: cell-based, human; settings: A549, 2.5 μM, 6 h incubation, CM-H2DCFDA
A549 lung cancer cells [2] = test: ICP-MS detection of intracellular Au (cellular uptake)
zebrafish embryos = test: Zebrafish toxicity analysis (lethality, MTD); assay type: in vivo
A549 lung cancer cells [3] = test: Cell proliferation (MTT assay) in A549 lung cancer cells; assay type: cell-based, human
Description: To gauge the ability of each complex to inhibit cancer cell growth, A549 lung cancer cells were treated with 1–3, 4[H][Cl], doxorubicin, and auranofin in a dose responsive manner. Cellular vitality (i.e., mitochondrial reductase activity) was then quantified colorimetrically post treatment using 3-(4,5-dimethylthiazol-2-yl)-2,5-diphenyltetrazolium bromide (MTT assay) (Table 2, Fig. 5).
as §1, §2, §3
Zahid Siddik at M.D. Anderson Cancer Center (A2780 and A2780CP). Cell culture plastic ware (i.e. T-75 flasks, treated 6-well plates, treated 96-well plates, and cell scrapers) were obtained from Fisher Scientific. Cell were cultured in RPMI 1640 culture medium (+2mM glutamine, +25mM HEPES, Corning 10041cv) supplemented with 10% heat-inactivated fetal bovine serum (RMBIO FBS-BBT) and 1X penicillin-streptomycin (Sigma p4333). Unless otherwise noted, incubators were set to 37°C and 5% CO2.
Trypsin (HyClone SH30236.01) and 1X Phosphate Buffered Saline (HyClone SH30258.02, diluted in autoclaved deionized water) were utilized for general cell line maintenance and harvesting. Trace Metal […]
Cell Proliferation Studies. Cells were harvested and seeded into 96-well culture plates (Costar 07-200-90) in 100µL of culture media. They were allowed to incubate overnight at 37 °C in the presence of 5% CO2. […]
and PC-3 at 2000 cells/well. […]
were made. To each well of a 96 well plate was added 100 µL of the appropriate solution. After a total of three days, a […] aliquot of 3 mg/mL tetrazolium dye, 3-(4,5-dimethylthiazol-2-yl)-2,5-diphenyltetrazolium bromide (Alfa Aesar L11939) was added to each well, followed by a 4 hr incubation period at 37 °C. The medium was then removed, the resulting formazan was dissolved in […] DMSO and the respective absorbances were measured at 560–650 nm using a microplate reader (Molecular Devices, Sunnyvale, CA). Absorbance values were corrected for background and then normalized to wells containing untreated cells to allow for plate-to-plate comparisons. The data are shown as mean inhibition of proliferation or growth as a percentage of control cells and are from 2–3 replicate experiments. Resulting dose response curves were subjected to linear regression analysis (Origin by OriginLab, Inc.) for determination of IC50 values.

[4] = test system: thioredoxin reductase (TrxR); settings: A549, 0.1–0.6 μM, 6 h exposure, lipoate reduction over 180 min
Description: Briefly, plateau phase A549 cells were exposed to variable doses of complexes 1, 3, 4[H][Cl], a 2 : 1 molar ratio of 4[H][Cl] and 5 (cocktail), auranofin, and doxorubicin for 6 h. Post treatment, the live cells were monitored colorimetrically over 180 min for their ability to reduce lipoate (Fig. 8a).

A549 cells [5] = test: Apoptosis by annexin-V/PI flow cytometry; assay type: cell-based, human; settings: A549, 1.25–20 μM, 24 h

Cc1cc(C)c(-n2c3c(n(-c4c(C)cc(C)cc4C)[c]2=[Au-]=[c]2n(-c4c(C)cc(C)cc4C)c4c(n2-c2c(C)cc(C)cc2C)C(=O)c2ccccc2C4=O)C(=O)c2ccccc2C3=O)c(C)c1.[Cl][Ag-][Cl] [Complex 1, [bis(1,3-dimesityl-4,5-naphthoquino-imidazol-2-ylidene)-gold(I)] [silver(I)dichloride]]
IC50 (PC-3 prostate): 96 ± 17 nM
Increase in intracellular ROS (fluorescence cell population shift) (A549 cells [1]): 27 fold
Intracellular Au levels (uptake), in words (A549 lung cancer cells [2]): identical
Lethality (zebrafish embryos; zebrafish embryos, concentrations above 1 μM): 100%
LC50 (50% lethal concentration) (zebrafish embryos; zebrafish embryos/larvae): 0.75 µM
Mortality (zebrafish embryos; zebrafish larvae, 0.75 μM dose): ~ 50%
Fold difference relative to 1 (A549 lung cancer cells [3]; A549, ratio of IC50 to that of 1 (Table 2)): 1
IC50 (A549 lung cancer cells [3]; A549 lung cancer cells, MTT, 72 h, read-out: IC50): 73 nM
IC50 (A549 lung cancer cells [3]; Table 3, error = standard error from the mean, read-out: IC50 A549 lung): 73 ± 16 nM
Inhibition of TrxR at low concentrations [4]: inhibition of TrxR was apparent
Mechanism of cell death (A549 cells [5]): induces controlled cell death via an apoptotic mechanism
